Results published in patent publication US20110281852A1 (priority 2010, published 2011).
Where two headings read alike, the source gives them in different places.

Assays:
3T3-L1 cells [1] = test: Oil-Red-O staining and quantification, berberine with amentoflavone in 3T3-L1 (Example 6); type: cell-based, mouse; conditions: Mus musculus
Description: (§1) Oil-Red-O staining and quantification: Oil-Red-O Staining and its quantification were performed as previously reported. Briefly, medium was removed and cells were washed with PBS twice, fixed with 3.7% formalin at room temperature for 30 min, then rinsed with pure water, added 60% isopropanol and incubated for 5 minutes, then moved out isopropanol and stained cells with diluted Oil-Red-O solution (Oil-Red-O store solution (3 mg/ml in pure isopropanol): water=3:2) at room temperature for 10 min. Then the diluted Oil-Red-O solution was removed and cells were washed 3 times with pure water. After staining, the cells were washed twice with 70% ethanol to remove excess stain. Stained oil droplets in the cells were dissolved in isopropanol containing 4% Nonidet-P40 (Fisher Scientific, Pittsburgh, Pa., USA) shaking in 37° C. at speed 100 rpm for 1 hour, and OD values were measured at an absorbance of 490 nm and then normalized with control group.

[2] = MTT assay, 3T3-L1 viability during differentiation with clozapine, risperidone, berberine (Example 2); type: cell-based, mouse; conditions: mouse, 3T3-L1 cells during differentiation induction; read-out: reduction of cell viability
Description: (§2) Cell culture and drug treatment: 3T3-L1 cells (American Type Culture Collection, Manassas, Va., USA) were cultured at 37° C. in a humidified 5% CO2 atmosphere and grown in a DMEM (Sigma-Aldrich, St. Louis, Mo. USA) supplemented with 10% Fetal Bovine Serum (FBS, Atlanta Biologicals Corp., Lawrenceville, Ga., USA), 100 units/ml penicillin and 100 μg/ml streptomycin. Differentiation was induced by addition of 167 nM insulin, 520 μM isobutylmethylxanthine (IBMX), and 1 μM dexamethasone for 2 days and then only with 167 nM insulin for 6 days. Detailed protocol was described as our previous report (Hu et al., Phytomedicine (2009) 16(9):864-873).
(§3) Medium was removed after differentiation and treatment for 8 days, MTT (Methylthiazolyldiphenyl—tetrazolium bromide 0.5 mg/ml, 50 μl/well) was added.

3T3-L1 cells [3] = test: Oil-Red-O staining and quantification, clozapine/risperidone induced adipogenesis in 3T3-L1 (Example 2); type: cell-based, mouse; conditions: 8 days
Description: Detailed protocol was described as our previous report (Hu et al., Phytomedicine (2009) 16(9):864-873).
as §1, with “reported (Liu et al., Sinica (2004) 25:1052-1057).” for “reported.”, “water. Images were obtained using an Olympus IX70 inverted microscope equipped for phase-contrast microscopy (Olympus, Tokyo, Japan).” for “water.”

SREBP-1 = test: Real-time RT-PCR, SREBP-1 mRNA in 3T3-L1; type: cell-based, mouse; conditions: 8 days
Source text: (§4) Realtime RT-PCR: Real-time reverse transcriptase polymerase chain reaction (RT-PCR) analysis was used to measure mRNA expression of genes SREBP-1, PPARγ, C/EBPα, low density lipoprotein receptor (LDLR), Adiponectin, and fatty acid synthase (FAS) under the control of β-actin. Briefly, total RNA was isolated from 3T3-L1 cells following treatment for 8 days with Trizol reagent (Invitrogen, Carlsbad, Calif., USA) according to the manufacturer's instruction. RNA was quantified using absorption of light at 260 nm, and sample purity was checked by OD 260 nm/280 nm. 0.8 μg of total RNA from each sample was used for reverse transcription reaction using the TaqMan Reverse Transcription Reagents (Applied Biosystems, Foster City, Calif., USA) according to the manufacturers' instructions. PCR was done using the SYBR green Master Mix (Applied Biosystems, Foster City, Calif., USA) according to the manufacturers' instructions. The temperature cycling conditions of amplification were as follows: an initial step of denaturation at 95° C. for 10 min, 40 cycles of denaturation at 95° C. for 30 s, annealing at 55° C. for 30 s, and elongation at 72° C. for 30 s. Realtime RT-PCR was performed using Mx3000P Realtime Thermocyclers (Statagene, La Jolla, Calif., USA). The relative mRNA levels of these genes were calculated by 2-delta delta CT method and normalized with control groups.

PPARγ = test: Real-time RT-PCR, PPARγ mRNA in 3T3-L1; type: cell-based, mouse; conditions: 15 μM clozapine, 8 days
Source text: as §4

C/EBPα = test: Real-time RT-PCR, C/EBPα mRNA in 3T3-L1; type: cell-based, mouse; conditions: 8 days
Source text: as §4

[4] = tested on: low density lipoprotein receptor (LDLR); test: Real-time RT-PCR, LDLR mRNA in 3T3-L1; type: cell-based, mouse; conditions: 8 days
Source text: as §4

Adiponectin = test: Real-time RT-PCR, Adiponectin mRNA in 3T3-L1; type: cell-based, mouse; conditions: 8 days
Source text: as §4

[5] = in vivo; cited from earlier work
3T3-L1 cells [6] = test: MTT assay, 3T3-L1 viability during differentiation with clozapine, risperidone, berberine (Example 2); type: cell-based, mouse; conditions: day 8 of differentiation
Description: as §2, §3

[7] = tested on: fatty acid synthase (FAS); test: Real-time RT-PCR, FAS mRNA in 3T3-L1; type: cell-based, mouse; conditions: 50 μM risperidone, 8 days
Source text: as §4

[8] = over 10 weeks of treatment; cited from earlier work

O=c1cc(-c2ccc(O)c(-c3c(O)cc(O)c4c(=O)cc(-c5ccc(O)cc5)oc34)c2)oc2cc(O)cc(O)c12 [amentoflavone, reference compound]
inhibition at 25 µM (3T3-L1 cells [1]; 3T3-L1, read-out: enhancement of the inhibitory effects of berberine, 25 μM amentoflavone added to 4 μM berberine, with 15 μM clozapine): 10.1%
inhibition at 25 µM (3T3-L1 cells [1]; 3T3-L1, read-out: enhancement of the inhibitory effects of berberine, 25 μM amentoflavone added to 8 μM berberine, with 15 μM clozapine): 7.8%

CN1CCN(C2=Nc3cc(Cl)ccc3Nc3ccccc32)CC1 [clozapine, reference compound]
cytotoxicity at 8 days, 15 μM [2]: 6.2%
cytotoxicity at 8 days, 30 μM [2]: 12.5%
induced adipogenesis vs vehicle treated group (3T3-L1 cells [3]; 15 μM clozapine): 37.4%
induced adipogenesis vs vehicle treated group (3T3-L1 cells [3]; 30 μM clozapine): 25.2%
increase of SREBP-1 mRNA expression vs control group (SREBP-1; 15 μM clozapine): 27.6%
increase of PPARγ mRNA expression vs control group (PPARγ): 68.3%
increase of C/EBPα mRNA expression vs control group (C/EBPα; 15 μM clozapine): 45.7%
increase of LDLR mRNA expression vs control group ([4]; 15 μM clozapine): 63.1%
increase of adiponectin mRNA expression vs control group (Adiponectin; 15 μM clozapine): 45.5%

CN(C)C(=N)N=C(N)N [metformin]
effect in antipsychotic-induced weight gain [5]: no statistically significant effect

CCCCCCCCCCC[C@@H](C[C@@H]1OC(=O)[C@H]1CCCCCC)OC(=O)[C@H](CC(C)C)NC=O [orlistat]
effect in antipsychotic-induced weight gain [5]: no statistically significant effect

Cc1nc2n(c(=O)c1CCN1CCC(c3noc4cc(F)ccc34)CC1)CCCC2 [risperidone, reference compound]
enhancement of cell viability (3T3-L1 cells [6]; printed 'for 15 μM clozapine treatment'): 14%
enhancement of cell viability (3T3-L1 cells [6]; printed 'for 30 μM clozapine treatment'): 16.8%
induced adipogenesis vs vehicle treated group (3T3-L1 cells [3]; 25 μM risperidone): 14.1%
induced adipogenesis vs vehicle treated group (3T3-L1 cells [3]; 50 μM risperidone): 26.5%
increase of SREBP-1 mRNA expression vs control group (SREBP-1; 50 μM risperidone): 133.5%
increase of C/EBPα mRNA expression vs control group (C/EBPα; 50 μM risperidone): 48.8%
increase of LDLR mRNA expression vs control group ([4]; 50 μM risperidone): 61.5%
increase of adiponectin mRNA expression vs control group (Adiponectin; 50 μM risperidone): 63.8%
increase of FAS mRNA expression vs control group [7]: 34.4%
weight gain [8]: ~2 kg

CC(C)CC(N(C)C)C1(c2ccc(Cl)cc2)CCC1 (stereo not drawn) [sibutramine]
effect in antipsychotic-induced weight gain [5]: no statistically significant effect
